The subject of one assay is Streptococcus pyogenes. Kind of assay: MIC by broth microdilution. Format: cell-based. To be noted: internal code L49; for MIC: Streptococcus pyogenes, read-out: MIC of the compounds.
Assay [1] has as its system Staph. haemolyticus rifa-r^(2). Description: MIC by broth microdilution. Format: cell-based. To be noted: for MIC: Staphylococcus haemolyticus, read-out: MIC of the compounds. On the technique in general: Dilution methods test growth across graded concentrations, often in twofold steps.
The test system of assay [2] is Enterococc. faecalis ATCC 7080. Description: MIC by broth microdilution. Type of assay: cell-based, Enterococcus faecalis. To be noted: internal code L149; for MIC: Enterococcus faecalis, ATCC7080, read-out: MIC of the compounds.
In another assay the test system is Staph. aureus rifa-r^(1). Kind of assay: MIC by broth microdilution. Format: cell-based. As to conditions: for MIC: Staphylococcus aureus, read-out: MIC of the compounds.
The subject of the next assay is Staph. aureus rifa-r^(2). Description: MIC by broth microdilution. Type of assay: cell-based. As to conditions: for MIC: Staphylococcus aureus, read-out: MIC of the compounds.
In assay [3] the test system is Pseudomonas aerug. ATCC10145. Description: MIC by broth microdilution. Format: cell-based, Pseudomonas aeruginosa. To be noted: internal code L4; for MIC: Pseudomonas, ATCC10145, read-out: MIC of the compounds.
Assay [4] deals with Staph. epidermidis ATCC 12228. Kind of assay: MIC by broth microdilution. To be noted: internal code L147; for MIC: Staphylococcus epidermidis, ATCC12228, read-out: MIC of the compounds. Format: cell-based.
The subject of the next assay is Strept. pneumoniae. Description: MIC by broth microdilution. Format: cell-based. To be noted: internal code L44; for MIC: Streptococcus pneumoniae, read-out: MIC of the compounds.
A further assay deals with Staph. aureus Smith. Kind of assay: MIC by broth microdilution. To be noted: internal code L819; for MIC: Staphylococcus aureus, read-out: MIC of the compounds. Type of assay: cell-based.
For assay [5], the system named is Bacteroides fragilis ATCC 25285. Kind of assay: MIC by broth microdilution. As to conditions: Bacteroides fragilis, ATCC25285; internal code L1011; anaerobic, 48 hours; read-out: MIC of the compounds. Type of assay: cell-based.
Another assay deals with Escherichia coli. Kind of assay: MIC by broth microdilution. Type of assay: cell-based. To be noted: internal code L47; for MIC: Escherichia coli, read-out: MIC of the compounds.
The test system of assay [6] is Proteus vulgaris ATCC 881. Description: MIC by broth microdilution. Type of assay: cell-based. To be noted: internal code L79; for MIC: Proteus vulgaris, ATCC881, read-out: MIC of the compounds.
Another assay concerns Neisseria gonorrhoeae. Kind of assay: MIC by broth microdilution. As to conditions: internal code L997, 5% carbon dioxide, 48 hours; for MIC: Neisseria gonorrhoeae, read-out: MIC of the compounds. Format: cell-based.
Assay [7] deals with Staphylococcus aureus Smith (Int. code L 819). Kind of assay: Experimental septicemia in mice. Type of assay: in vivo. As to conditions: treated once immediately after infection, survival on the 7th day; for ED50: Staphylococcus aureus, 168 h. The protocol:
Some compounds of the invention were also tested in experimental septicemia in mice infected with Staphylococcus aureus Smith (Int. code L 819). For this purpose, groups of five mice were infected intraperitoneally with about 1 x 10^6 CFU of S. aureus Smith suspended in 0.5 ml of Difco bacteriological mucin. Untreated animals died within 48 hours. The other animals were treated once immediately after infection. On the 7th day the value of ED50 (expressed in mg/kg) was calculated by the method of Spearman-[…]., Statistical method in biological assay, page 254, C. Griffin Ltd., London, 1952), on the basis of the percentage of animals surviving at each dose.

For another assay, the system named is Staphylococcus aureus. Description: MIC by broth microdilution. Type of assay: cell-based. To be noted: internal code L165; for MIC: Staphylococcus aureus, read-out: MIC of the compounds.
For assay [8], the system named is Haemoph. influenzae ATCC 19418. Kind of assay: MIC by broth microdilution. As to conditions: internal code L970, 5% carbon dioxide, 48 hours; for MIC: Haemophilus influenzae, ATCC19418, read-out: MIC of the compounds. Format: cell-based, Haemophilus influenzae.
In assay [9] the test system is Propionibact. acnes ATCC 6919. Kind of assay: MIC by broth microdilution. Type of assay: cell-based, Propionibacterium acnes. To be noted: Cutibacterium acnes, ATCC6919; internal code L1014; anaerobic, 48 hours; read-out: MIC of the compounds.
The test system of assay [10] is Esch. coli K12 rifa-r^(1). Kind of assay: MIC by broth microdilution. Type of assay: cell-based, Escherichia coli. To be noted: Escherichia coli, read-out: MIC of the compounds.
Assay [11] has as its system Moraxella catarr. ATCC 8178. Kind of assay: MIC by broth microdilution. Type of assay: cell-based, Moraxella catharralis. To be noted: ATCC8178, internal code L76, read-out: MIC of the compounds.
The subject of the next assay is Clostridium perfringens. Kind of assay: microbe, parasite or virus in culture. Type of assay: cell-based. To be noted: read-out: MIC of the compounds.
Assay [12] relates to Esch. coli K12 hyperpermeable. Kind of assay: MIC by broth microdilution. Type of assay: cell-based, Escherichia coli. To be noted: Escherichia coli, read-out: MIC of the compounds.
The next assay has as its system Klebsiella pneumoniae. Description: MIC by broth microdilution. As to conditions: internal code L142, read-out: MIC of the compounds. Format: cell-based.
The test system of assay [13] is Bacteroides fragilis ATCC 23745. Kind of assay: MIC by broth microdilution. Format: cell-based. To be noted: internal code L1010, anaerobic, 48 hours.
Where [14] appears, read: intravenous, read-out: ED50 IV route.
The mark [15] stands for this setting: sc, subcutaneous, read-out: ED50 SC route.

Where two headings read alike, the source gives them in different places.

`CCn1cc(C(=O)OCC(=O)O[C@H]2[C@H](C)[C@H](O)[C@H](C)[C@@H](O)[C@@H](C)/C=C/C=C(/C)C(=O)Nc3c(C=NN4CCN(C)CC4)c(O)c4c5c(c(C)c(O)c4c3O)O[C@](C)(O/C=C/[C@H](OC)[C@H]2C)C5=O)c(=O)cc1N1CCN(C)CC1` [Compound C30, 36-{[1-Ethyl-1,4-dihydro-6-(4-methyl-1-piperazinyl)-4-oxo-3-pyridinyl]carbonyloxy]-3-{[(4-methyl-1-piperazinyl)imino]methyl}rifamycin SV]: the MIC was 0.016 µg/mL in the assay with Streptococcus pyogenes; 4 µg/mL in assay [1]; 0.25 µg/mL in assay [2]; 0.5 µg/mL with Staph. aureus rifa-r^(1); 1 µg/mL in the assay on Staph. aureus rifa-r^(2); 32 µg/mL in assay [3]. Moreover, the MIC in assay [4] is 0.016 µg/mL; with Strept. pneumoniae it was 0.008 µg/mL; in the assay on Staph. aureus Smith, 0.016 µg/mL; in [5] it was 0.06 µg/mL; in the assay on Escherichia coli it was 16 µg/mL; in assay [6] it was 16 µg/mL. The MIC with Neisseria gonorrhoeae is 0.13 µg/mL; in the assay on Staphylococcus aureus, 0.016 µg/mL; in assay [8] it was 1 µg/mL; in [9], 0.03 µg/mL. Moreover, the ED50 stood at 0.72 mg/kg in [7] (setting [14]) and 1.6 mg/kg in assay [7] (setting [15]).

With `CO[C@H]1/C=C/O[C@@]2(C)Oc3c(C)c(O)c4c(c3C2=O)C(=O)C=C(NC(=O)/C(C)=C\C=C\[C@H](C)[C@H](O)[C@@H](C)[C@@H](O)[C@@H](C)[C@H](OC(=O)CCl)[C@@H]1C)C4=O` [Compound C3, 36-Chlororifamycin S], the MIC was greater than 128 µg/mL in [10]; 0.008 µg/mL in assay [11]; 0.016 µg/mL in the assay with Streptococcus pyogenes; 64 µg/mL in assay [1]; 0.25 µg/mL in assay [2]; 1 µg/mL with Staph. aureus rifa-r^(1). For the same compound, the MIC in the assay with Staph. aureus rifa-r^(2) was found to be 16 µg/mL; in [3], 32 µg/mL; in the assay with Clostridium perfringens, 0.0003 µg/mL; in assay [4], 0.008 µg/mL; in the assay with Strept. pneumoniae it was 0.03 µg/mL; in [12], 0.25 µg/mL. For the same compound, the MIC is 0.13 µg/mL in [5]; 64 µg/mL with Klebsiella pneumoniae; 32 µg/mL in the assay on Escherichia coli; 8 µg/mL in [6]; 0.13 µg/mL with Neisseria gonorrhoeae; 0.004 µg/mL in the assay with Staphylococcus aureus. The MIC in [8] turned out to be 1 µg/mL; in assay [9], 0.03 µg/mL.

On to `CCn1cc(C(=O)OCC(=O)O[C@H]2[C@H](C)[C@H](O)[C@H](C)[C@@H](O)[C@@H](C)/C=C/C=C(/C)C(=O)Nc3c(C=NN4CCN(C5CCCC5)CC4)c(O)c4c5c(c(C)c(O)c4c3O)O[C@](C)(O/C=C/[C@H](OC)[C@H]2C)C5=O)c(=O)c2cc(F)c(N3CCN(C)CC3)cc21` [Compound C26, 3-[[(4-Cyclopentyl-1-piperazinyl)-imino]methyl}-36-{[1-ethyl-6-fluoro-1,4-dihydro-7-(4-methyl-1-piperazinyl)-4-oxo-3-quinolinyl]carbonyloxy}-rifamycin SV], for which the MIC in the assay with Streptococcus pyogenes was 0.03 µg/mL; in [1] it was 0.5 µg/mL; in assay [2] it was 4 µg/mL; in the assay on Staph. aureus rifa-r^(1), 0.13 µg/mL; in the assay on Staph. aureus rifa-r^(2), 2 µg/mL; in assay [3] it was 32 µg/mL. The MIC in assay [4] turned out to be 0.06 µg/mL; in the assay on Strept. pneumoniae it was 0.03 µg/mL; in the assay on Staph. aureus Smith, 0.13 µg/mL; in assay [5], 1 µg/mL; with Escherichia coli, 2 µg/mL; in assay [6], 2 µg/mL. Also, the MIC was 0.13 µg/mL with Neisseria gonorrhoeae, 0.06 µg/mL in the assay on Staphylococcus aureus, 1 µg/mL in [8] and 0.13 µg/mL in assay [9]. Moreover, the ED50 in assay [7] (setting [14]) came out at 0.95 mg/kg; in assay [7] (setting [15]) it was 1.6 mg/kg.

In the case of `CCn1cc(C(=O)OCC(=O)O[C@H]2[C@H](C)[C@H](O)[C@H](C)[C@@H](O)[C@@H](C)/C=C/C=C(/C)C(=O)NC3=C(N4CCOCC4)C(=O)c4c(c(O)c(C)c5c4C(=O)[C@@](C)(O/C=C/[C@H](OC)[C@H]2C)O5)C3=O)c(=O)c2cc(F)c(N3CCN(C)CC3)cc21` [Compound C24, 36-{[1-Ethyl-6-fluoro-1,4-dihydro-7-(4-methyl-1-piperazinyl)-4-oxo-3-quinolinyl]carbonyloxy}-3-(4-morpholinyl) rifamycin S], the MIC amounted to 0.06 µg/mL in the assay on Streptococcus pyogenes; 0.13 µg/mL in [1]; 0.13 µg/mL in [2]; 0.06 µg/mL with Staph. aureus rifa-r^(1); 0.13 µg/mL in the assay on Staph. aureus rifa-r^(2); 16 µg/mL in assay [3]. The MIC worked out at 0.13 µg/mL in assay [13] (Bacteroides fragilis, ATCC23745, read-out: MIC of the compounds); 0.008 µg/mL in assay [4]; 0.008 µg/mL with Strept. pneumoniae; 0.06 µg/mL with Staph. aureus Smith; 16 µg/mL in the assay with Escherichia coli; 16 µg/mL in [6]. Besides, the MIC with Neisseria gonorrhoeae amounted to 0.06 µg/mL; with Staphylococcus aureus it was 0.06 µg/mL; in assay [8], 0.13 µg/mL; in [9] it was 0.06 µg/mL. In addition, the ED50 in [7] (setting [14]) is 3.8 mg/kg; in assay [7] (setting [15]), greater than 50 mg/kg.

For “36-[(1-Ethyl-6-fluoro-1,4-dihydro-7-(4-methyl-1-piperazinyl)-4-oxo-3-quinolinyl)carbonyloxy]-2'-(diethylamino)rifamycin P [Compound C22]”, the “MIC of the compounds” value came out at 0.06 µg/mL in the assay with Streptococcus pyogenes; 0.5 µg/mL in [1] (internal code L602, rifampicin resistant strain, highly resistant); 2 µg/mL in assay [2]; 0.13 µg/mL in the assay on Staph. aureus rifa-r^(1) (internal code L721, rifampicin resistant strain, moderately resistant); 1 µg/mL with Staph. aureus rifa-r^(2) (internal code L1282, rifampicin resistant strain, highly resistant); 32 µg/mL in assay [3]. For the same compound, the “MIC of the compounds” value in assay [13] is 0.13 µg/mL; in assay [4], 0.06 µg/mL; with Strept. pneumoniae, 0.06 µg/mL; with Staph. aureus Smith, 0.06 µg/mL; in the assay with Escherichia coli, no less than 128 µg/mL; in assay [6], 64 µg/mL. The “MIC of the compounds” value in the assay on Neisseria gonorrhoeae was found to be 0.25 µg/mL; with Staphylococcus aureus it was 0.06 µg/mL; in assay [8], 0.5 µg/mL. Further, in assay [7] (intravenous), the “ED50 IV route” value was determined as 0.7 mg/kg. Also, the “ED50 SC route” value in assay [7] (subcutaneous) is recorded as 5.3 mg/kg.

Broadly, the ED50 is the dose that gives a 50% effect, or the effect in half of the subjects.

For the origin of these results see patent publication EP0700399B1, “36-DERIVATIVES OF RIFAMYCINS AND THEIR USE AS ANTIMICROBIAL AGENTS” (GRUPPO LEPETIT S.P.A., priority 1993, dated 1994).
